According to patent US5783556A, “Formulated insulin-containing composition” (Genentech, Inc., priority 1996, dated 1998):

Assays:
[1] = Mixing one volume of human insulin with an equal volume of IGF-I: pH, color and appearance; format: physicochemical
From the text: One volume of human insulin was mixed with an equal volume of IGF-I using the following procedure:
1) Draw air into syringe equal to the amount of human insulin for mixing. Insert the needle into the human insulin bottle and inject air. Withdraw the needle.
3) Turn the bottle and syringe upside down.
4) Make sure the tip of the needle is in the IGF-I, withdraw the correct dose of IGF-I into the syringe.
5) Before removing the needle from the bottle, check the syringe for air bubbles which reduce the amount of IGF-I in it. If bubbles are present, hold the syringe straight up and tap its sides until the bubbles float to the top. Push them out with the plunger and withdraw the correct dose.
6) Remove the needle from the bottle of IGF-I and insert it into the bottle of human insulin. Turn the bottle and syringe upside down. Hold the bottle and syringe firmly in one hand and shake gently (no shaking for regular human insulin). Make sure the tip of the needle is in the insulin, withdraw the dose of human insulin.

[2] = Plasma total and free IGF-I levels in the IDDM clinical study; format: in vivo, human; conditions: 2-4 hours after rhIGF-I injection
From the text: At the end of the lead-in period the patients were randomized to administer either rhIGF-I or placebo as an additional injection immediately before their morning insulin injections. Patients were allocated using an adaptive randomization procedure that stratified based on Tanner stage and the glycosylated hemoglobin value on day -28 of the lead-in period. A seven-day window period was allowed between day -1 of the lead-in period and day 1 of the treatment period. The subjects were admitted to the hospital the afternoon preceding day 1 of treatment and received their usual insulin dose and diet. On day 1, an IV cannula was inserted into the distal forearm or antecubital fossa. A single dose of rhIGF-I (80 μg/kg) or placebo was administered SC, followed by a SC insulin injection and breakfast. The dosing of IGF-I in the morning was for safety reasons. On day 1, the a.m. regular insulin dose was reduced by 1/3in both groups as a precaution against the development of hypoglycemia. Blood samples were obtained for future assay every 15 minutes for the next 3 hours. […]
Plasma levels of GH, IGF-I, free IGF-I, IGF-II, IGFBP-1, IGFBP-2, and IGFBP-3 were measured. […] Total plasma IGF-I concentrations were determined by radioimmunoassay (RIA) following acid-ethanol extraction as described by Lieberman et al., supra. […]

[3] = Acidic pH reversed-phase HPLC of centrifuged and filtered insulin, IGF-I and insulin/IGF-I mixtures; format: physicochemical
Description: Human insulin was gently inverted several times to mix the suspension. Approximately 1 mL of sample was withdrawn into an insulin syringe. The insulin was discharged into a centrifuge tube, then centrifuged at 3000 r.p.m. for 10 minutes. The centrifuge step was designed to remove human insulin suspension from solution. After centrifugation, the insulin sample was filtered through a 0.22 μm filter to further remove human insulin suspension. After filtration the solution was analyzed by using the acidic pH reversed-phase HPLC method described below: […]
solvent A: 0.1% trifluoroacetic acid solvent B: 0.1% trifluoroacetic acid in acetonitrile […]
column temperature: 50° C. […]
injection volume: 25 μg/injection
This solution was analyzed by the above HPLC method with no sample preparation step.
IGF-I was diluted to 1 mg/mL using IGF-I placebo. The diluted sample was analyzed by the above HPLC method.
Human insulin was mixed with IGF-I in an insulin syringe using the mixing method described above. Immediately after mixing, the mixture was injected into a centrifuge tube, then gently vortexed for 1-2 seconds. After vortexing, the mixture was centrifuged at 3000 r.p.m. for 10 minutes, then filtered through a 0.22 μm filter to remove human insulin suspension. The filtered sample was then analyzed by the acidic pH reversed-phase HPLC method described above.

patients with IDDM [4] = test: Safety assessments in the IDDM clinical study (hypoglycemia, laboratory profiles, body weight); format: in vivo, human
Description: The primary safety laboratory evaluations were serum biochemical and thyroid profiles, CBC, urinalysis, 24-hour urinary albumin excretion rate and creatinine clearance. Hypoglycemia was defined by a BG level equal to or lower than 50 mg/dL with or without symptomatology. This definition of hypoglycemia was used for purposes of statistical analysis.
Patients with at least two weeks of post randomization data were included in the analysis. […] The data are summarized by mean±SE for each group. Comparisons between the two groups were performed using the Wilcoxon rank sum test for continuous variables and Fisher's exact test for discrete data. All tests were two-tailed and a p-value less than or equal to 0.05 was considered statistically significant.

STZ diabetic rats = test: Plasma glucose after SC injection in STZ diabetic rats (Studies 1-3); format: in vivo, rat
Description: Forty 7-8 week-old male SD rats were received from Charles River Laboratories and one day later injected with STZ 75 mg/kg IP. Five days later rats were bled via a tail vein, serum was obtained, and glucose concentration measured. All animals with blood glucose <200 mg/dL were not considered diabetic and were removed from the study. […] The right jugular vein was then isolated through a small SC incision and cannulated using a 0.02 inch×0.037 inch beveled silicon rubber-tipped cannula. Cannulas were flushed and checked for patency using heparin (10 U/mL) before closing wounds using 4-0 silk suture thread. Cannulas were "heparin locked" using ~50 μl heparin (100 U/mL) just before the animals were placed on a heated pad for recovery. Rats were placed in their vivarium cage when ambulatory.
The cannulas were flushed daily with fresh heparin/saline to maintain patency. Two days after cannulation, Study 1 (see below) was performed and two days later, Study 2. […]
Plasma glucose concentrations were measured using a Chem 1A serum chemistry analyzer (Miles Laboratories, Tarrytown, N.Y.). Insulin in plasma was measured by rat-specific radioimmunoassay (RIA) (Linco Research Inc., St. Charles, Mo.). Plasma IGF-I was measured by RIA after acid-ethanol extraction of the samples. […]

patients with IDDM [5] = test: Four-week randomized placebo-controlled double-blind study of rhIGF-I plus insulin in IDDM: glycemic control and insulin usage; format: in vivo, human
From the text: Forty-three patients (22 males and 21 females) with IDDM, ages 8-17 years, were recruited at three university-based diabetes clinics. The eligibility criteria were as follows:
The study design included a 4-week lead-in period, a 4-week treatment period, and a 2-week wash-out period (FIG. 13). Throughout the study the patients continued to receive two injections of regular and NPH insulin daily. At study entry the patients were provided with detailed instructions on home blood glucose (BG) monitoring technique. They were instructed to test BG before breakfast, lunch, dinner, and the evening snack as well as any times of symptomatic hypoglycemia. The glucose values were automatically stored in the meter (One Touch II--Lifescan Inc., Milpitas, Calif.) and electronically transferred to a personal computer at the study site during each clinic visit. During the lead-in period the patients were counseled weekly on general diabetes care and dietary management (day -28 and -14 at the clinic, day -21 and -7 over the phone). During this period the patients were provided with specific goals of glycemic control and were instructed to call the study sites as often as needed for assistance with insulin adjustment.
At the end of the lead-in period the patients were randomized to administer either rhIGF-I or placebo as an additional injection immediately before their morning insulin injections. Patients were allocated using an adaptive randomization procedure that stratified based on Tanner stage and the glycosylated hemoglobin value on day -28 of the lead-in period. A seven-day window period was allowed between day -1 of the lead-in period and day 1 of the treatment period. The subjects were admitted to the hospital the afternoon preceding day 1 of treatment and received their usual insulin dose and diet. On day 1, an IV cannula was inserted into the distal forearm or antecubital fossa. A single dose of rhIGF-I (80 μg/kg) or placebo was administered SC, followed by a SC insulin injection and breakfast. The dosing of IGF-I in the morning was for safety reasons. On day 1, the a.m. regular insulin dose was reduced by 1/3in both groups as a precaution against the development of hypoglycemia. Blood samples were obtained for future assay every 15 minutes for the next 3 hours. The patients were encouraged to be active and exercise after the initial 3-hour sampling period. Discharge from the hospital occurred on day 3 or 4 of treatment. The patients were then contacted by phone on day 5 and seen as outpatients on days 7, 14, 21, and 28 of treatment and 14 days after the cessation of dosing. The patients were instructed on dietary and diabetes management at each follow-up appointment.
For the entire four-week treatment period, the rhIGF-I and placebo doses remained constant (80 μg/kg SC q a.m.). However, the insulin doses were adjusted in an attempt to achieve the following BG targets: fasting blood glucose (FBG) 80-120 mg/dl (4.4-6.7 mmol/L) for age greater than 12 years and 80-140 mg/dL (4.4-7.8 mmol/L) for age lower than 12 years; 80-180 mg/dL (4.4-10.0 mmol/L) at any other time. A physical exam was performed on day -28 of the lead-in period, on days 1, 7, 21 and 28 of the treatment period, and on day 14 of the wash-out period. The treatment period was followed by a two-week wash-out period, during which the patients remained on insulin therapy only and dose adjustments continued as necessary to meet the glycemic goals.
The primary indices of glycemic control were: 1) HbA1 was measured at day -28 of the lead-in, as well as at days 1 and 28 of the treatment; 2) the average of the four daily home glucose monitoring values over the last ten days of the lead-in period was compared to the last ten days of treatment. The glycosylated hemoglobin was assayed by affinity chromatography (SmithKline Beecham Clinical Laboratories). The reference range was 4.4-6.1%.
Patients with at least two weeks of post randomization data were included in the analysis. […]

[6] = last 10 days of treatment period, Mean ± SEM

IGF-I: rhIGF-I (Genentech): 10 mg/mL IGF-I, 5.84 mg/mL NaCl, 9.0 mg/mL benzyl alcohol, 2.0 mg/mL polysorbate 20, 50 mM sodium acetate, pH 5.4
Color and Appearance Before Mixing [1]: colorless, clear
pH Before Mixing [1]: 5.4
free IGF-I level compared with corresponding Tanner stage placebo group [2]: higher
IGF-I intact and unoxidized ([3]; IGF-I formulation alone, FIG. 1C): approximately 99%
IGF-I precipitated ([3]; immediately after mixing with HUMULIN R): ~25%
body weight (patients with IDDM [4]; day 28 of treatment): 55 ± 17 kg
biochemical, lipid, and thyroid profiles (patients with IDDM [4]; throughout the duration of the study): remained within normal limits
median amount of hypoglycemic episodes (patients with IDDM [4]; treatment period, BG equal to or lower than 50 mg/dL): 6
blood glucose levels after 6 hours (STZ diabetic rats; Study 1, 6 hours after SC injection): returned to basal values
blood glucose levels (STZ diabetic rats; Study 1, twenty minutes post-injection, SC, rhIGF-I 500 μg and/or NPH insulin 5U): 218.3±38.1 mg %
average number of NPH units used per kg body weight (patients with IDDM [5]; during treatment): 0.65±0.14 units used per kg body weight
Mean Plasma Glucose Concentrations, Pre-bedtime, Treatment (patients with IDDM [5]; [6]): 171 ± 51 mg/dL
Mean Plasma Glucose Concentrations, Pre-breakfast, Treatment (patients with IDDM [5]; [6]): 176 ± 39 mg/dL
Mean Plasma Glucose Concentrations, Pre-dinner, Treatment (patients with IDDM [5]; [6]): 199 ± 47 mg/dL
Mean Plasma Glucose Concentrations, Pre-lunch, Treatment (patients with IDDM [5]; [6]): 142 ± 56 mg/dL
mean reduction of HbA1 during the treatment period (patients with IDDM [5]; rhIGF-I 80 μg/kg SC q a.m. plus regular and NPH insulin, 4 weeks): 1.8±1.25%
average amount of regular insulin used (patients with IDDM [5]; treatment phase): 0.20±0.10 insulin units used daily per kg of body weight
